Source: patent US9193731B2, “Antimicrobial compounds and methods of making and using the same” (Melinta Therapeutics, Inc., priority 2009, dated 2015)

System: Escherichia coli strain ATCC25922
Assay: standard microdilution assay to determine minimum inhibitory concentrations (MICs)
Type: cell-based
Settings: for MIC: Escherichia coli, ATCC25922, Escherichia coli strain ATCC25922, microdilution, read-out: E. coli ATCC25922 MIC; for E. coli ATCC25922 MIC: Escherichia coli strain ATCC25922, microdilution
In short: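 E. coli strain ATCC25922 tested per CLSI microdilution methodology (about 100 microliters per well) to find minimum inhibitory concentrations. Activity scored categorically at a 16 micrograms/ml threshold.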

| SMILES | MIC [µg/mL] | E. coli ATCC25922 MIC |
| --- | --- | --- |
| CCCCn1cc(CCN)c2ccc(-n3cc4cc(CCS(=O)(=O)C5CCNCC5)[nH]c4nc3=O)cc21 [Compound 1258] | > 16 |  |
| CCOCCOc1cccc(-c2cc3cn(-c4ccc(CN)cc4)c(=O)nc3[nH]2)c1 [Compound 1121] | > 16 |  |
| NCCCNCc1ccc(-n2cc3cc(CCS(=O)(=O)N(CC4CCOCC4)C4CCNCC4)[nH]c3nc2=O)cc1 [Compound 923] | < 16 |  |
| N=C(N)NCCCNCc1ccc(-n2cc3cc(CCS(=O)(=O)N(CCC4CCCN4)C4CCNCC4)[nH]c3nc2=O)cc1 (stereo not shown) [Compound 991] |  | + (a “+” indicates that the compound has an MIC value of 16 micrograms/ml or less) |
| NCc1ccc(-n2cc3cc(-c4cccc(OCCCc5ccc(Cl)cc5)c4)[nH]c3nc2=O)cc1 [Compound 1128] | > 16 |  |
| CC(=O)NCc1ccc(-n2cc3cc(-c4cccc(CCCN)c4)[nH]c3nc2=O)cc1 [Compound 2063a] |  | − (a “−” indicates that the compound has an MIC value greater than 16 micrograms/ml) |
| NCCCCCN1CCC(n2cc3cc(-c4ccc(F)cc4)[nH]c3nc2=O)C1 (stereo not shown) [Compound 560] | > 16 |  |
| NCCCNCc1ccc(-n2cc3cc(CCNC4CCNCC4)[nH]c3nc2=O)cc1 [Compound 687] | < 16 |  |
| N=C(N)NCCCNCc1ccc(-n2cc3cc(-c4cc(Br)cc(CCCCN)c4)[nH]c3nc2=O)cc1 [Compound 2079a] |  | + (a “+” indicates that the compound has an MIC value of 16 micrograms/ml or less) |
| NCCCNCc1ccc(-c2cn3cc(-c4ccc(S(=O)(=O)N5CCN(C(=O)OCc6ccccc6)CC5)cc4)[nH]c3nc2=O)cc1 [Compound 791] | > 16 |  |
| NCc1ccc(-n2cc3cc(-c4cccc(S(=O)(=O)N(CCN5CCCC5)C5CCNCC5)c4)[nH]c3nc2=O)cc1 [Compound 1183] | > 16 |  |
| N=C(N)NCCCNCc1ccc(-c2cn3cc(-c4ccc(C5=CCN(C(=N)N)CC5)cc4)[nH]c3nc2=O)cc1 [Compound 650] | < 16 |  |
| N=C(N)NCCCNCc1ccc(-n2cc3cc(-c4ccc(S(=O)(=O)N(Cc5ccccc5SC(F)(F)F)C5CCOCC5)cc4)[nH]c3nc2=O)cc1 [Compound 876] |  | − (a “−” indicates that the compound has an MIC value greater than 16 micrograms/ml) |
| N=C(N)NCCCNCc1ccc(-n2cc3cc(-c4cc(OC(F)(F)F)cc(C(O)CCN)c4)[nH]c3nc2=O)cc1 (stereo not shown) [Compound 2061a] |  | + (a “+” indicates that the compound has an MIC value of 16 micrograms/ml or less) |
| N=C(N)NCCCNCc1ccc(-n2cc3cc(-c4ccc(C[C@H](N)CO)cc4)[nH]c3nc2=O)cc1 [Compound 907] |  | + (a “+” indicates that the compound has an MIC value of 16 micrograms/ml or less) |
| N=C(N)NCCCNCc1ccc(-n2cc3cc(-c4cc(OC(F)(F)F)cc(SCCCN)c4)[nH]c3nc2=O)cc1 [Compound 2047a] |  | + (a “+” indicates that the compound has an MIC value of 16 micrograms/ml or less) |
| N=C(N)NCCCNCc1ccc(-n2cc3cc(-c4cc(C(=O)NCCCF)cc(N5CCNCC5)c4)[nH]c3nc2=O)cc1 [Compound 997] |  | + (a “+” indicates that the compound has an MIC value of 16 micrograms/ml or less) |
| N=C(N)NCCCNCc1ccc(-n2cc3cc(CCN[C@H]4CCCNC4)[nH]c3nc2=O)cc1 [Compound 817] | < 16 |  |
| N=C(N)NCCCNCc1ccc(-n2cc3cc(-c4ccc(S(=O)(=O)N(CC5COc6ccccc6O5)C5CCNCC5)cc4)[nH]c3nc2=O)cc1 (stereo not shown) [Compound 768] |  | + (a “+” indicates that the compound has an MIC value of 16 micrograms/ml or less) |
| CN1CCN(CCOc2cc(-n3cc4cc(-c5ccc(S(=O)(=O)NC6CCNCC6)cc5)[nH]c4nc3=O)ccc2C(=O)NCCCNC(=N)N)CC1 [Compound 1152] |  | − (a “−” indicates that the compound has an MIC value greater than 16 micrograms/ml) |
| N=C(N)NCCCNCc1ccc(-n2cc3cc(-c4cc(C(=O)N5CCC(C(N)=O)CC5)cc(N5CCNCC5)c4)[nH]c3nc2=O)cc1 [Compound 911] |  | − (a “−” indicates that the compound has an MIC value greater than 16 micrograms/ml) |
| N=C(N)NCCCNCc1ccc(-n2cc3cc(-c4cccc(SCCN)c4)[nH]c3nc2=O)cc1 [Compound 1451] |  | + (a “+” indicates that the compound has an MIC value of 16 micrograms/ml or less) |
| N=C(N)NCCCNCc1ccc(-n2cc3cc(-c4cc(CCN)cc(OCC(F)CN)c4)[nH]c3nc2=O)cc1 (stereo not shown) [Compound 2011a] |  | + (a “+” indicates that the compound has an MIC value of 16 micrograms/ml or less) |
| N=C(N)NCCCNCc1ccc(-n2cc3cc(-c4cccc(S(=O)(=O)N(CCC(N)=O)C5CCNCC5)c4)[nH]c3nc2=O)cc1 [Compound 1259] |  | + (a “+” indicates that the compound has an MIC value of 16 micrograms/ml or less) |
| N=C(N)NCCCNC(=O)c1ccc(-n2cc3cc(-c4ccc(S(=O)(=O)N(CCCC5CCCC5)C5CCNCC5)cc4)[nH]c3nc2=O)cc1 [Compound 1011] |  | + (a “+” indicates that the compound has an MIC value of 16 micrograms/ml or less) |

| SMILES | MIC [µg/mL] | E. coli ATCC25922 MIC |
| --- | --- | --- |
| NC(=O)/N=C(/N)NCCNCc1ccc(-n2cc3cc(-c4ccc(C(=O)NC5CCNCC5)cc4)[nH]c3nc2=O)cc1 [Compound 229] | < 16 |  |
| N=C(N)NCCCNCc1ccc(-n2cc3cc(-c4cccc(S(=O)(=O)N(CCCN5CCCCC5)C5CCNCC5)c4)[nH]c3nc2=O)cc1 [Compound 1027] |  | + (a “+” indicates that the compound has an MIC value of 16 micrograms/ml or less) |
| O=C(NC1CCNCC1)c1ccc(-c2cc3cn(-c4ccc(CNCCCCl)cc4)c(=O)nc3[nH]2)c(F)c1 [Compound 253] | > 16 |  |
| NCCCNCc1ccc(-c2cn3cc(-c4ccc(C(=O)NCCO)cc4)[nH]c3nc2=O)cc1 [Compound 827] | > 16 |  |
| O=c1nc2[nH]c3ccccc3c2cn1C1CCNC1 (stereo not shown) [Compound 597] | > 16 |  |
| NCCCCOc1ccc(-c2cn3cc(-c4ccc(S(=O)(=O)NC5CCNCC5)cc4)[nH]c3nc2=O)cc1 [Compound 824] |  | − (a “−” indicates that the compound has an MIC value greater than 16 micrograms/ml) |
| N=C(N)NCCCNCc1ccc(-n2cc3cc(-c4cc(OCC(F)CN)cc(-c5cccc(CN)c5)c4)[nH]c3nc2=O)cc1 (stereo not shown) [Compound 2030a] |  | + (a “+” indicates that the compound has an MIC value of 16 micrograms/ml or less) |
| N=C(N)NCCCNCc1ccc(-n2cc3cc(-c4cccc(NCC(=O)N5CCNCC5)c4)[nH]c3nc2=O)cc1 [Compound 645] | < 16 |  |
| N=C(N)NCCCNC(=O)Cn1cc2cc(-c3ccc(S(=O)(=O)NC4CCNCC4)cc3)[nH]c2nc1=O [Compound 1289] |  | − (a “−” indicates that the compound has an MIC value greater than 16 micrograms/ml) |
| N=C(N)NCCCNCc1ccc(-n2cc3cc(-c4cccc(OCC5CNC5)c4)[nH]c3nc2=O)cc1 [Compound 1418] |  | + (a “+” indicates that the compound has an MIC value of 16 micrograms/ml or less) |
| COc1ccc(CCN(C2CCNCC2)S(=O)(=O)c2cccc(-c3cc4cn(-c5ccc(CN)cc5)c(=O)nc4[nH]3)c2)cc1 [Compound 1215] | > 16 |  |
| NCCCCCc1ccc(-c2cn3cc(-c4ccc(Br)cc4)[nH]c3nc2=O)cc1 [Compound 886] | > 16 |  |
| N=C(N)NCCCNCc1ccc(-n2cc3cc(-c4cc(CN)cc(CCCCN)c4)[nH]c3nc2=O)cc1 [Compound 2064a] |  | + (a “+” indicates that the compound has an MIC value of 16 micrograms/ml or less) |
| N=C(N)NCCCNCc1ccc(-n2cc3cc(-c4ccc(S(=O)(=O)N(Cc5ccc(Cl)c(SC(F)(F)F)c5)C5CCNCC5)cc4)[nH]c3nc2=O)cc1 [Compound 759] |  | + (a “+” indicates that the compound has an MIC value of 16 micrograms/ml or less) |
| O=C(NC1CCNCC1)c1ccc(-c2cc3cn(-c4ccc(CNCCCCl)cc4)c(=O)nc3[nH]2)cc1F [Compound 254] | > 16 |  |
| CNCc1ccc(-n2cc3cc(-c4ccc(S(=O)(=O)N(CCCc5cn[nH]c5)C5CCNCC5)cc4)[nH]c3nc2=O)cc1 [Compound 1351] |  | − (a “−” indicates that the compound has an MIC value greater than 16 micrograms/ml) |
| N=C(N)NCCCNCc1ccc(-n2cc3cc(CSc4n[nH]c(N)n4)[nH]c3nc2=O)cc1 [Compound 636] | > 16 |  |
| N=C(N)NCCCNCc1ccc(-c2cn3cc(-c4ccc(S(=O)(=O)N5CCOCC5)cc4)[nH]c3nc2=O)cc1 [Compound 762] | > 16 |  |
| N=C(N)NCCCNCc1ccc(-n2cc3cc(-c4cccc(OCC5(CN)CCC5)c4)[nH]c3nc2=O)cc1 [Compound 1434] |  | + (a “+” indicates that the compound has an MIC value of 16 micrograms/ml or less) |
| O=c1nc2[nH]c(-c3ccc(S(=O)(=O)NC4CCNCC4)cc3)cc2cn1-c1ccccc1O [Compound 1208] | > 16 |  |
| NCCCNCc1ccc(-n2cc3cc(-c4cccc(N5CCNCC5)c4)[nH]c3nc2=O)cc1 [Compound 775] | < 16 |  |
| NCCCNCc1ccc(-n2cc3cc(-c4ccc(C(=O)NC5CCNCC5)cc4)[nH]c3nc2=O)cc1 [Compound 227] | < 16 |  |
| N=C(N)NCCCNCc1ccc(-n2cc3cc(-c4cc(CCCCN)cc(S(=O)(=O)C(F)(F)F)c4)[nH]c3nc2=O)cc1 [Compound 2055a] |  | + (a “+” indicates that the compound has an MIC value of 16 micrograms/ml or less) |
| N=C(N)NCCCNCc1ccc(-n2cc3cc(-c4cc(C(F)(F)F)cc(S(=O)(=O)NCCN)c4)[nH]c3nc2=O)cc1 [Compound 2067a] |  | + (a “+” indicates that the compound has an MIC value of 16 micrograms/ml or less) |
